Data on 35 compounds can be found in a polymer gas permeability compilation.

Turning to `*c1cc(C(c2ccc(O)c(N3C(=O)c4cc5c(cc4C3=O)C3(C)c4ccccc4C5(C)c4cc5c(cc43)C(=O)N(*)C5=O)c2)(C(F)(F)F)C(F)(F)F)ccc1O` (repeat unit), the CH4 permeability was found to be 0.565 Barrer, the CO2 permeability amounted to 35 Barrer, the H2 permeability was 83.5 Barrer and the N2 permeability was found to be 1.2 Barrer. Also, the O2 permeability turned out to be 7.45 Barrer.

`*Oc1c(C)cc(C(C)(C)c2cc(C)c(OC(=O)c3cccc(C(*)=O)c3)c(C)c2)cc1C` (repeat unit) gave a CH4 permeability of 0.472 Barrer, a CO2 permeability of 12 Barrer, an H2 permeability of 38.6 Barrer and an N2 permeability of 0.579 Barrer. In addition, the O2 permeability was 3.26 Barrer.

Regarding `*CCSS*` (repeat unit), the CO2 permeability is 3.14 Barrer, the H2 permeability is 1.57 Barrer and the O2 permeability came to 0.288 Barrer.

For the compound `*Oc1ccc2c(c1)-c1nc3cc(Oc4ccc5nc6n(c5c4)C(=O)c4cc(*)ccc4-6)ccc3n1C2=O` (repeat unit), the H2 permeability came out at 6.88 Barrer, the N2 permeability turned out to be 0.026 Barrer and the O2 permeability was determined as 0.22 Barrer.

`*Oc1ccc(C(C)(C)c2ccc(OC(=O)c3cc(C(*)=O)cc(C(C)(C)C)c3)c(C)c2)cc1C` (repeat unit) displayed a CH4 permeability of 0.4 Barrer, a CO2 permeability of 8 Barrer, an H2 permeability of 27.1 Barrer and an N2 permeability of 0.393 Barrer. In addition, the O2 permeability was 2.37 Barrer.

The compound `*C(=C(*)c1ccc2c(c1)C(C)(C)CC2(C)C)c1ccccc1` (repeat unit) yielded a CH4 permeability of 29100 Barrer, a CO2 permeability of 38700 Barrer, an H2 permeability of 24800 Barrer and an N2 permeability of 11600 Barrer. The compound further returned an O2 permeability of 14400 Barrer.

`*N=P(*)(C)C` (repeat unit) returned a CO2 permeability of 29.4 Barrer, an N2 permeability of 1.27 Barrer and an O2 permeability of 3.53 Barrer.

On to `*/C(C)=C(/*)[Si](C)(C)CC` (repeat unit), for which the CH4 permeability is 1200 Barrer, the CO2 permeability was determined as 4600 Barrer, the H2 permeability worked out at 1930 Barrer and the N2 permeability worked out at 490 Barrer. For the same compound, the O2 permeability was determined as 970 Barrer.

In turn, `*c1ccc(Oc2ccc(C(c3ccc(Oc4ccc(N5C(=O)c6ccc(-c7ccc8c(c7)C(=O)N(*)C8=O)cc6C5=O)cc4C(F)(F)F)cc3)(C(F)(F)F)C(F)(F)F)cc2)c(C(F)(F)F)c1` (repeat unit) had a CH4 permeability of 0.279 Barrer, a CO2 permeability of 9.15 Barrer, an H2 permeability of 30.6 Barrer and an N2 permeability of 0.563 Barrer. Further, the O2 permeability came out at 3.11 Barrer.

With `*Oc1ccc(S(=O)(=O)c2ccc(Oc3ccc(C(C)(C)c4ccc(*)cc4)cc3)cc2)cc1` (repeat unit), the CH4 permeability was found to be 0.258 Barrer, the CO2 permeability was 5.6 Barrer, the H2 permeability was 14 Barrer and the N2 permeability was found to be 0.249 Barrer. Further, the O2 permeability amounted to 1.4 Barrer.

`*Oc1cc(C)c(C2(c3cc(C)c(Oc4ccc(S(=O)(=O)c5ccc(*)cc5)cc4)cc3C)OC(=O)c3ccccc32)cc1C` (repeat unit) returned a CH4 permeability of 0.225 Barrer, a CO2 permeability of 7.69 Barrer, an H2 permeability of 16.9 Barrer and an N2 permeability of 0.21 Barrer. In addition, the O2 permeability was found to be 1.55 Barrer.

The compound `*CC(*)OC(C)=O` (repeat unit) came in with an H2 permeability of 9.19 Barrer and an O2 permeability of 0.488 Barrer.

On to `*CC(*)Cl` (repeat unit), for which the CH4 permeability was found to be 0.0263 Barrer, the CO2 permeability amounted to 0.16 Barrer, the H2 permeability is 1.79 Barrer and the N2 permeability worked out at 0.0109 Barrer. The compound also yielded an O2 permeability of 0.0453 Barrer.

`*CC(*)(Cl)Cl` (repeat unit): the CO2 permeability was found to be 0.029 Barrer, the N2 permeability was determined as 0.000939 Barrer and the O2 permeability is 0.00519 Barrer.

`*Nc1ccc(C(C)(C)c2ccc(NC(=O)c3ccc(Oc4cc(C(C)(C)C)c(Oc5ccc(C(*)=O)cc5)cc4C(C)(C)C)cc3)c(C)c2)cc1C` (repeat unit): the CH4 permeability is 0.9 Barrer, the CO2 permeability was 21 Barrer, the N2 permeability turned out to be 0.81 Barrer and the O2 permeability was 4.5 Barrer.

Take `*c1ccc(Oc2cccc(-n3c(=O)c4cc5c(=O)n(*)c(=O)c5cc4c3=O)c2)cc1` (repeat unit): the CH4 permeability came out at 0.0258 Barrer, the CO2 permeability worked out at 1.15 Barrer, the H2 permeability amounted to 5.92 Barrer and the N2 permeability was 0.0454 Barrer. The same compound displayed an O2 permeability of 0.31 Barrer.

`*CC(*)OC(=O)c1cccc(C)c1` (repeat unit): the CH4 permeability worked out at 0.118 Barrer, the CO2 permeability turned out to be 2.13 Barrer, the N2 permeability stood at 0.0875 Barrer and the O2 permeability amounted to 0.496 Barrer.

In turn, `*Oc1cc2c(cc1O*)C(C)(C)CC1(CC(C)(C)c3cc4c(cc3O1)Oc1c(C#N)c(*)c(*)c(C#N)c1O4)O2` (repeat unit) had a CH4 permeability of 93 Barrer, a CO2 permeability of 1540 Barrer, an H2 permeability of 750 Barrer and an N2 permeability of 61.5 Barrer. The compound further registered an O2 permeability of 212 Barrer.

Compound `*Nc1ccc(Oc2ccc(Oc3ccc(NC(=O)CN4C(=O)c5ccc(C(*)=O)cc5C4=O)cc3)cc2)cc1` (repeat unit) had a CH4 permeability of 0.015 Barrer, a CO2 permeability of 0.749 Barrer, an N2 permeability of 0.02 Barrer and an O2 permeability of 0.185 Barrer.

`*C1C(*)C2CC1C1CC([Si](C)(C)C)C21` (repeat unit): the CH4 permeability came out at 1010 Barrer, the CO2 permeability was found to be 5300 Barrer, the H2 permeability worked out at 2060 Barrer and the N2 permeability amounted to 390 Barrer. The O2 permeability was 990 Barrer.

As for `*c1ccc2c(c1)Oc1ccc(C3(c4ccc5c(c4)Oc4ccc(*)cc4O5)c4ccccc4-c4ccccc43)cc1O2` (repeat unit), the CH4 permeability was determined as 0.56 Barrer, the CO2 permeability is 26.6 Barrer, the N2 permeability came out at 1.04 Barrer and the O2 permeability was found to be 5.68 Barrer.

The compound `*c1c(C)c(C(=O)O)c(C)c(N2C(=O)c3ccc(C(c4ccc5c(c4)C(=O)N(*)C5=O)(C(F)(F)F)C(F)(F)F)cc3C2=O)c1C` (repeat unit) returned a CH4 permeability of 3.2 Barrer, a CO2 permeability of 144 Barrer, an H2 permeability of 193 Barrer and an N2 permeability of 5.52 Barrer. This compound came in with an O2 permeability of 26.4 Barrer.

As to `*C(=C(*)c1ccc2c(c1)C(C)(C)c1ccccc1-2)c1cc(F)cc(F)c1` (repeat unit), the CH4 permeability turned out to be 4200 Barrer, the CO2 permeability turned out to be 9200 Barrer, the H2 permeability came to 5000 Barrer and the N2 permeability is 1700 Barrer. Besides, the O2 permeability was determined as 2700 Barrer.

In the case of `*Oc1ccc(S(=O)(=O)c2ccc(Oc3c(C)cc(-c4cc(C)c(*)c(C)c4C)c(C)c3C)cc2)cc1` (repeat unit), the CH4 permeability was determined as 0.944 Barrer, the CO2 permeability was determined as 25.5 Barrer, the N2 permeability was determined as 1.2 Barrer and the O2 permeability came out at 6 Barrer.

`*c1ccc2c(c1)C(=O)n1c-2nc2ccc(Oc3ccc4c(c3)nc3n4C(=O)c4ccc(C(*)(C(F)(F)F)C(F)(F)F)cc4-3)cc21` (repeat unit) displayed an H2 permeability of 54.9 Barrer, an N2 permeability of 0.81 Barrer and an O2 permeability of 5.04 Barrer.

`*CC(*)c1ccc(C([Si](C)(C)C)[Si](C)(C)C)cc1` (repeat unit) registered a CO2 permeability of 150 Barrer, an N2 permeability of 10.1 Barrer and an O2 permeability of 37.7 Barrer.

Compound `*c1c(C)cc(-c2cc(C)c(N3C(=O)c4ccc(C(=O)Oc5ccc(C(c6ccc(OC(=O)c7ccc8c(c7)C(=O)N(*)C8=O)cc6)(C(F)(F)F)C(F)(F)F)cc5)cc4C3=O)c(C)c2)cc1C` (repeat unit) came in with an H2 permeability of 38 Barrer, an N2 permeability of 0.549 Barrer and an O2 permeability of 3.02 Barrer.

The compound `*=CC1CC(C=*)C2C(=O)N(C34CC5CC(CC(C5)C3)C4)C(=O)C12` (repeat unit) showed a CH4 permeability of 0.58 Barrer, a CO2 permeability of 8.39 Barrer, an H2 permeability of 12.8 Barrer and an N2 permeability of 0.5 Barrer. Moreover, the O2 permeability amounted to 1.59 Barrer.

Turning to `*c1ccc(Cc2ccc(N3C(=O)c4ccc(-c5ccc6c(c5)C(=O)N(*)C6=O)cc4C3=O)cc2Br)c(Br)c1` (repeat unit), the CH4 permeability stood at 0.0054 Barrer, the CO2 permeability was found to be 0.315 Barrer, the N2 permeability was found to be 0.0103 Barrer and the O2 permeability came out at 0.0923 Barrer.

`*c1c(C)cc(C)c(N2C(=O)c3ccc(S(=O)(=O)c4ccc5c(c4)C(=O)N(*)C5=O)cc3C2=O)c1C` (repeat unit) had an H2 permeability of 47.1 Barrer, an N2 permeability of 1.02 Barrer and an O2 permeability of 5.69 Barrer.

The compound `*c1ccc2c(-c3c(O)ccc4cc(N5C(=O)c6ccc(C(c7ccc8c(c7)C(=O)N(*)C8=O)(C(F)(F)F)C(F)(F)F)cc6C5=O)ccc34)c(O)ccc2c1` (repeat unit) had a CH4 permeability of 0.09 Barrer, a CO2 permeability of 4.32 Barrer, an H2 permeability of 5.95 Barrer and an N2 permeability of 0.14 Barrer. The same compound gave an O2 permeability of 0.98 Barrer.

On to `*c1ccc(-c2cc(C)c(-c3ccc(*)cc3C)cc2C)c(C)c1` (repeat unit), for which the CH4 permeability worked out at 0.88 Barrer, the CO2 permeability amounted to 32 Barrer, the H2 permeability worked out at 72 Barrer and the N2 permeability stood at 1.4 Barrer. The same compound had an O2 permeability of 7.2 Barrer.

Compound `*Oc1cc2c(cc1O*)C(=O)N(c1c(C)c(C)c(-n3c(=O)c4cc5oc6cc7c(cc6oc5cc4c3=O)C3(C(C)C)c4ccccc4C7(C(C)C)c4cc(*)c(*)cc43)c(C)c1C)C2=O` (repeat unit) displayed a CH4 permeability of 83.7 Barrer, an H2 permeability of 3430 Barrer, an N2 permeability of 87.4 Barrer and an O2 permeability of 542 Barrer.

The compound `*CC(C)C(=O)OCCOC(=O)C(C)C*` (repeat unit) registered a CH4 permeability of 4.8 Barrer, a CO2 permeability of 95 Barrer, an H2 permeability of 15 Barrer and an N2 permeability of 1.6 Barrer. The same compound gave an O2 permeability of 4.7 Barrer.

`*c1c(C)c(C)c(N2C(=O)c3ccc(Oc4c(C)cccc4Oc4ccc5c(c4)C(=O)N(*)C5=O)cc3C2=O)c(C)c1C` (repeat unit) had a CH4 permeability of 0.7 Barrer, a CO2 permeability of 27 Barrer, an H2 permeability of 51 Barrer and an N2 permeability of 0.83 Barrer. The O2 permeability was determined as 4.8 Barrer.
